In article PMC9603750, “Chalcone-Acridine Hybrid Suppresses Melanoma Cell Progression via G2/M Cell Cycle Arrest, DNA Damage, Apoptosis, and Modulation of MAP Kinases Activity” (International Journal of Molecular Sciences, 2022):

Tests used:
Experiment in all cases: MTT assay (metabolic activity)
A2058 = format: cell-based, human; details: Homo sapiens; A2058, 72 h incubation
Protocol: (§1) Cell lines A2058 (human melanoma lymph node metastasis, cat. 91100402) from ECACC (Public Health England, Salisbury, UK) and BLM (human melanoma lung metastasis a gift from prof. K. Smetana, Institute of Anatomy, Charles University in Prague) were cultured in a medium consisting of high glucose Dulbecco’s Modified Eagle’s Medium (DMEM) and sodium pyruvate (GE Healthcare, Piscataway, NJ, USA). The growth medium was supplemented with a 10% fetal bovine serum (FBS) and antibiotic/antimycotic solution 1 × HyClone™ (GE Healthcare, Chicago, IL, USA). The MCF-10A (human mammary epithelial cells) cell line was cultured in a medium consisting of high glucose Dulbecco’s Modified Eagle’s Medium F12 (DMEM/F12) (Biosera, Kansas City, MO, USA). The growth medium was supplemented with a 10% FBS, antibiotic/antimycotic solution 1 × HyClone™ (GE Healthcare, Chicago, IL, USA), epidermal growth factor (EGF) (20 ng/mL final), hydrocortisone (0.5 μg/mL final) and insulin (10 μg/mL final) (Sigma-Aldrich Chemie, Steinheim, Germany). Cells were cultured in humidified air at 37 °C with atmosphere containing 5% CO2.
(§2) The half-maximal inhibitory concentration values (IC50) and metabolism inhibition of tested synthetic chalcone derivatives were determined by MTT (3-(4,5-di-methylthiazol-2-yl)2,5-diphenyltetrazolium bromide) colorimetric assay (Sigma-Aldrich Chemie, Steinheim, Germany). Tested cell lines were seeded at a density of 5 × 10^3 cells/well in 96-well culture plates. After 24 h, the tested chalcones in concentrations of 100, 50 and 10 μmol/L were added and incubation proceeded for the next 72 h. In the next step, 10 μL of MTT (5 mg/mL) was added to each well containing cells and incubated for another 4 h at 37 °C during which MTT was metabolized to insoluble formazan in cells. After 4 h, 100 μL of a 10% sodium dodecyl sulphate (SDS) was added to each well and another 24 h were allowed for the formazan crystals to dissolve. The metabolic activity of cells was evaluated by measuring the absorbance at wavelength 540 nm using the automated Cytation™ 3 Cell Imaging Multi-Mode Reader (Biotek, Winooski, VT, USA). Three independent analyses were performed.

BLM = format: cell-based, human; details: Homo sapiens; BLM, 72 h incubation
Protocol: as §1, §2

MCF-10A = format: cell-based; details: Homo sapiens; MCF-10A noncancer cell line, 72 h incubation
Protocol: as §1, §2

O=C(/C=C/c1c[nH]c2ccccc12)c1ccccc1F [ZKCH-11H, (2E)-1-(2-fluorophenyl)-3-(1H-indol-3-yl)prop-2-en-1-one]
IC50 (A2058): 42.4 ± 2.98 µM | IC50 (BLM): 40.9 ± 2.62 µM | IC50 (MCF-10A): 60.7 ± 3.09 µM

CCCCOc1[nH]c2ccccc2c1/C=C/C(=O)c1ccccc1F [ZKCH-11F, (2E)-3-(2-butoxy-1H-indol-3-yl)-1-(2-fluorophenyl)prop-2-en-1-one]
IC50 (A2058): 45.8 ± 2.54 µM | IC50 (BLM): 47.7 ± 1.49 µM | IC50 (MCF-10A): > 100 µM

CC(C)Oc1[nH]c2ccccc2c1/C=C/C(=O)c1ccccc1F [ZKCH-11E, (2E)-1-(2-fluorophenyl)-3-[2-(propan-2-yloxy)-1H-indol-3-yl]prop-2-en-1-one]
IC50 (A2058): 37.3 ± 2.28 µM | IC50 (BLM): 33.8 ± 2.14 µM | IC50 (MCF-10A): 44.7 ± 4.96 µM

CC(C)COc1[nH]c2ccccc2c1/C=C/C(=O)c1ccccc1F [ZKCH-11G, (2E)-1-(2-fluorophenyl)-3-[2-(2-methylpropoxy)-1H-indol-3-yl]prop-2-en-1-one]
IC50 (A2058): 40 ± 1.37 µM | IC50 (BLM): 39.5 ± 3.9 µM | IC50 (MCF-10A): 51.3 ± 3.94 µM

COn1cc(/C=C/C(=O)c2ccccc2F)c2ccccc21 [ZKCH-11A, (2E)-1-(2-fluorophenyl)-3-(1-methoxy-1H-indol-3-yl)prop-2-en-1-one]
IC50 (A2058): 31.9 ± 0.95 µM | IC50 (BLM): 35.3 ± 6.1 µM | IC50 (MCF-10A): 85 ± 2.19 µM

CCOc1[nH]c2ccccc2c1/C=C/C(=O)c1ccccc1F [ZKCH-11C, (2E)-3-(2-ethoxy-1H-indol-3-yl)-1-(2-fluorophenyl)prop-2-en-1-one]
IC50 (A2058): 41.6 ± 0.73 µM | IC50 (BLM): 38.55 ± 0.06 µM | IC50 (MCF-10A): > 100 µM
